Assay results published in patent US9920090B2, “Betulinic acid derivatives with HIV maturation inhibitory activity” (priority 2014, dated 2018).

Tested on: recombinant NL4-3 virus (nef section replaced with Renilla luciferase gene, Gag P373S)
Assay: HIV Cell Culture Assay (luciferase reporter virus in MT-2 cells)
Format: cell-based
Conditions: NL43
Experimental: MT-2 cells and 293T cells were obtained from the NIH AIDS Research and Reference Reagent Program. MT-2 cells were propagated in RPMI 1640 media supplemented with 10% heat inactivated fetal bovine serum, […]. The 293T cells were propagated in DMEM media supplemented with 10% heat inactivated fetal bovine serum (FBS), 100 units/mL penicillin G and 100 μg/mL streptomycin. The proviral DNA clone of NL4-3 was obtained from the NIH AIDS Research and Reference Reagent Program. A recombinant NL4-3 virus, in which a section of the nef gene from NL4-3 was replaced with the Renilla luciferase gene, was used as a reference virus. In addition, residue Gag P373 was converted to P373S. Briefly, the recombinant virus was prepared by transfection of the altered proviral clone of NL4-3. Transfections were performed in 293T cells using LipofectAMINE PLUS from Invitrogen (Carlsbad, Calif.), according to manufacturer's instruction. The virus was titered in MT-2 cells using luciferase enzyme activity as a marker. Luciferase was quantitated using the Dual Luciferase kit from Promega (Madison, Wis.), with modifications to the manufacturer's protocol. The diluted Passive Lysis solution was pre-mixed with the re-suspended Luciferase Assay Reagent and the re-suspended Stop & Glo Substrate (2:1:1 ratio). Fifty (50) μL of the mixture was added to each aspirated well on assay plates and luciferase activity was measured immediately on a Wallac TriLux (Perkin-Elmer). Antiviral activities of inhibitors toward the recombinant virus were quantified by measuring luciferase activity in cells infected for 4-5 days with NLRluc recombinants in the presence serial dilutions of the inhibitor.

C=C(C)[C@@H]1CC[C@]2(C(=O)O)C[C@H](O)[C@]3(C)[C@H](CC[C@@H]4[C@@]5(C)CC=C(c6ccc(C(=O)O)cc6)C(C)(C)[C@@H]5C[C@H](O)[C@]43C)[C@@H]12 [Example 2, (1R,3aS,5S,5aR,5bR,6S,7aR,11aS,11bR,13aR,13bR)-9-(4-carboxyphenyl)-5,6-dihydroxy-5a,5b,8,8,11a-pentamethyl-1-(prop-1-en-2-yl)-2,3,3a,4,5,5a,5b,6,7,7a,8,11,11a,11b,12,13,13a,13b-octadecahydro-1H-cyclopenta[a]chrysene-3a-carboxylic acid]
EC50: 1560 nM

CC(C)[C@@H]1CC[C@]2(N)CC[C@]3(C)[C@H](CC[C@@H]4[C@@]5(C)C(=O)C=C(c6ccc(C(=O)O)cc6)C(C)(C)[C@@H]5CC[C@]43C)[C@@H]12 [Example 9, 4-((1S,3aS,5aR,5bR,7aS,11aS,11bS,13aR,13bR)-3a-amino-1-isopropyl-5a,5b,8,8,11a-pentamethyl-11-oxo-2,3,3a,4,5,5a,5b,6,7,7a,8,11,11a,11b,12,13,13a,13b-octadecahydro-1H-cyclopenta[a]chrysen-9-yl)benzoic acid]
EC50: 1.2 nM

C=C(C)[C@@H]1CC[C@]2(NCCN3CCS(=O)(=O)CC3)C[C@H](O)[C@]3(C)[C@H](CC[C@@H]4[C@@]5(C)CC=C(c6ccc(C(=O)O)cc6)C(C)(C)[C@@H]5C[C@H](O)[C@]43C)[C@@H]12 [Example 3, 4-((1R,3aS,5S,5aR,5bR,6S,7aR,11aS,11bR,13aR,13bR)-3a-((2-(1,1-dioxidothiomorpholino)ethyl)amino)-5,6-dihydroxy-5a,5b,8,8,11a-pentamethyl-1-(prop-1-en-2-yl)-2,3,3a,4,5,5a,5b,6,7,7a,8,11,11a,11b,12,13,13a,13b-octadecahydro-1H-cyclopenta[a]chrysen-9-yl)benzoic acid]
EC50: 17 nM

C=C(C)[C@@H]1CC[C@]2(C(=O)O)C[C@@H]3OC(C)(C)O[C@H]4C[C@H]5C(C)(C)C(c6ccc(C(=O)O)cc6)=CC[C@]5(C)[C@H]5CC[C@H]([C@@H]12)[C@]3(C)[C@]45C [Example 1, (1R,3aS,4aS,4a1R,7aS,7a1R,8aR,12aS,12bR,14aR,14bR)-10-(4-carboxyphenyl)-4a1,6,6,7a1,9,9,12a-heptamethyl-1-(prop-1-en-2-yl)-2,3,3a,4,4a,4a1,7a,7a1,8,8a,9,12,12a,12b,13,14,14a,14b-octadecahydro-1H-cyclopenta[1,2]chryseno[4,5-def][1,3]dioxepine-3a-carboxylic acid]
EC50: 40 nM

CC(C)[C@@H]1CC[C@]2(C(=O)O)CC[C@]3(C)[C@H](CC[C@@H]4[C@@]5(C)C(=O)C=C(c6ccc(C(=O)O)cc6)C(C)(C)[C@@H]5CC[C@]43C)[C@@H]12 [Example 4, (1S,3aS,5aR,5bR,7aS,11aS,11bS,13aR,13bR)-9-(4-carboxyphenyl)-1-isopropyl-5a,5b,8,8,11a-pentamethyl-11-oxo-2,3,3a,4,5,5a,5b,6,7,7a,8,11,11a,11b,12,13,13a,13b-octadecahydro-1H-cyclopenta[a]chrysene-3a-carboxylic acid]
EC50: 29 nM

CC(C)[C@@H]1CC[C@]2(C(=O)O)CC[C@]3(C)[C@H](CC[C@@H]4[C@@]5(C)[C@H](O)C=C(c6ccc(C(=O)O)cc6)C(C)(C)[C@@H]5CC[C@]43C)[C@@H]12 [Example 6, (1S,3aS,5aR,5bR,7aS,11R,11aS,11bS,13aR,13bR)-9-(4-carboxyphenyl)-11-hydroxy-1-isopropyl-5a,5b,8,8,11a-pentamethyl-2,3,3a,4,5,5a,5b,6,7,7a,8,11,11a,11b,12,13,13a,13b-octadecahydro-1H-cyclopenta[a]chrysene-3a-carboxylic acid]
EC50: 1730 nM

CC(C)[C@@H]1CC[C@]2(C(=O)O)CC[C@]3(C)[C@H](CC[C@@H]4[C@@]5(C)[C@@H](O)C=C(c6ccc(C(=O)O)cc6)C(C)(C)[C@@H]5CC[C@]43C)[C@@H]12 [Example 5, (1S,3aS,5aR,5bR,7aS,11S,11aS,11bS,13aR,13bR)-9-(4-carboxyphenyl)-11-hydroxy-1-isopropyl-5a,5b,8,8,11a-pentamethyl-2,3,3a,4,5,5a,5b,6,7,7a,8,11,11a,11b,12,13,13a,13b-octadecahydro-1H-cyclopenta[a]chrysene-3a-carboxylic acid]
EC50: 410 nM

CC(C)[C@@H]1CC[C@]2(C(=O)O)CC[C@]3(C)[C@H](CC[C@@H]4[C@@]5(C)C[C@@H]6O[C@]6(c6ccc(C(=O)O)cc6)C(C)(C)[C@@H]5CC[C@]43C)[C@@H]12 [Example 11, (1S,3aS,5aR,5bR,7aR,8aS,9aS,10aR,10bR,12aR,12bR)-8a-(4-carboxyphenyl)-1-isopropyl-5a,5b,8,8,10a-pentamethylicosahydro-1H-cyclopenta[7,8]chryseno[2,3-b]oxirene-3a-carboxylic acid]
EC50: 1310 nM

CC(C)[C@@H]1CC[C@]2(NCCN3CCS(=O)(=O)CC3)CC[C@]3(C)[C@H](CC[C@@H]4[C@@]5(C)C(=O)C=C(c6ccc(C(=O)O)cc6)C(C)(C)[C@@H]5CC[C@]43C)[C@@H]12 [Example 10, 4-((1S,3aS,5aR,5bR,7aS,11aS,11bS,13aR,13bR)-3a-((2-(1,1-dioxidothiomorpholino)ethyl)amino)-1-isopropyl-5a,5b,8,8,11a-pentamethyl-11-oxo-2,3,3a,4,5,5a,5b,6,7,7a,8,11,11a,11b,12,13,13a,13b-octadecahydro-1H-cyclopenta[a]chrysen-9-yl)benzoic acid]
EC50: 1.2 nM

CC(C)[C@@H]1CC[C@]2(C(=O)NCCCN3CCS(=O)(=O)CC3)CC[C@]3(C)[C@H](CC[C@@H]4[C@@]5(C)[C@H](F)C=C(c6ccc(C(=O)O)cc6)C(C)(C)[C@@H]5CC[C@]43C)[C@@H]12 [Example 8, 4-((1S,3aS,5aR,5bR,7aS,11R,11aS,11bS,13aR,13bR)-3a-((3-(1,1-dioxidothiomorpholino)propyl)carbamoyl)-11-fluoro-1-isopropyl-5a,5b,8,8,11a-pentamethyl-2,3,3a,4,5,5a,5b,6,7,7a,8,11,11a,11b,12,13,13a,13b-octadecahydro-1H-cyclopenta[a]chrysen-9-yl)benzoic acid]
EC50: 3.31 nM
